The record followed here is patent US20250304622A1, “SHORT APOLIPOPROTEIN E MIMETIC PEPTIDES AND METHODS OF USE” (The United States of America, as represented by the …, priority 2022, published 2025).

Assay [1] concerns ApoE-ko mice. The assay can be described thus: Single dose study in ApoE-ko mice, plasma total cholesterol and triglycerides. In kind it is in vivo. The following applies: for lowering of plasma total cholesterol: ApoE-KO mice, 2.5 μmol/kg i.v. single dose, FIG. 20A; for plasma total cholesterol / plasma triglyceride levels: ApoE-ko mice, 4.6 mg/kg (2.5 μmol/kg) intravenous; for plasma total cholesterol: FIG. 10A; for plasma triglyceride levels: effect transient, FIG. 10B. Here is the method: The effect of OctaC-E139-150 and OctaN-E139-150 peptides were tested in ApoE-ko mice. The mice were kept on a normal chow diet. At 3.5 months of age, 15 mice were divided into three groups of five mice each, as follows: 1) control group; 2) OctaC-E139-150 peptide group; and 3) OctaN-E139-150 peptide group. Peptides were dissolved in PBS at 1.5 mg/ml (810 μM OctaC-E139-150; 849 μM OctaN-E139-150). Mice were weighed one day before peptide administration and peptide amount was calculated for each mouse to receive 4.6 mg/kg peptide (2.5 μmol/kg). The calculated amount of 1.5 mg/ml peptide was placed in a syringe and normalized with PBS to 80 μl. The mice received intravenous injection of PBS (control) or the peptide. Blood samples were collected immediately prior to injection, and 1 hour, 3 hours, and 6 hours after injection. Blood was centrifuged at 3000 rpm at 4° C. for 20 minutes and plasma was separated (20-30 μl) and stored at 4° C. Plasma triglycerides and total cholesterol were measured the next day using L-type triglyceride M assay and The cholesterol E kit (Wako, FUJIFILM Medical Systems USA).
MyrN-E139-150 and OctaN-E139-150 peptides were tested in a single dose ApoE-KO mouse study. ApoE-KO mice (n=9) were divided into 3 groups: control group (PBS), n=3; MyrN-E139-150 (2.5 μmol/kg; 4.6 mg/kg), n=3; and OctaN-E139-150 (2.5 μmol/kg; 4.4 mg/kg), n=3. Mice were fed normal chow diet for the whole study. Peptides were injected i.v. and blood samples were collected at pre-injection and 1 h, 3 h, and 6 h after the injection of the peptides. Measurement of plasma total cholesterol and triglycerides was as described in Example 2. The peptides lowered plasma total cholesterol (FIG. 20A; 37% at 3 h; 29% at 6 h) and triglycerides (FIG. 20B; 30-50% at 1 h).

Assay [2] deals with WT HepG2 cells. Put plainly: LDL uptake by heparinase treated WT HepG2 cells. In kind it is cell-based. The following applies: Heparinase I, II, and III pretreatment. Here is the method:
(§1) Involvement of heparan sulfate proteoglycans (HSPGs) in peptide-mediated LDL uptake was tested. WT HepG2 cell were pretreated with a mixture of Heparinase I, II, and III (IBEX Pharmaceuticals) to degrade heparan sulfate chains on the cell surface. Next, LDL uptake studies were performed with OctaC-E139-150-S and MyrN-E141-150-amL peptides (FIGS. 18A-18C). […] Similarly, heparinase treatment attenuated MyrN-E141-150-amL mediated LDL uptake in WT HepG2 cells (FIG. 18C).

Assay [3] has as its system LDLR-ko HepG2 cells. Put plainly: LDL uptake by heparinase treated LDLR-KO HepG2 cells. The following applies: heparinase pretreatment, FIG. 18B. In kind it is cell-based. Here is the method: as §1
The test system of assay [4] is Mouse Hepatitis Virus (MHV). Put plainly: MHV-GFP replication in HeLa mCC1a cells. In kind it is cell-based. The note with it: 15 μM peptide, 16 hours, FIG. 11. The source says: Mouse Hepatitis Virus (MHV) is a beta coronavirus that infects mice cells via the murine CEACAM1 receptor (mCC1a receptor). HeLa (human epithelium) cells that have been modified to express the mCC1a receptor can be infected with MHV. The recombinant MHV used in this experiment has been modified such that it contains additional nucleocapsid (N) protein segment which is N-terminally fused with a green fluorescence protein tag (GFP) (see Verheije et al., J. Virol. 84:11575-11579, 2010). When cells are infected with MHV, the MHV replicates generating more GFP and increasing the fluorescent signal.
HeLa mCC1a cells were cultured in a 96 well plate. Cells were infected for 2 hours with MHV-GFP at 37° C. Viral stock solution was diluted 40-fold. Stock was prepared by infecting HeLa cells with MHV-GFP for 3 days and by collecting cellular media. Cells were washed with PBS and treated with media (DMEM plus 10% FBS, 100 IU/ml penicillin G, […] streptomycin, 0.5 mg/ml G418) containing ApoE peptides (15 μM) or media without peptide and incubated for 16 hours at 37° C. Cells were washed with PBS and total GFP fluorescence (ex/em 488/520) in cells was measured on the plate using a fluorescence plate reader.

For assay [5], the system named is WT HepG2 cells. Put plainly: Effect of heparin on peptide mediated LDL uptake in WT HepG2 cells. In kind it is cell-based. The note with it: 10 μM peptide, heparin 10 USP/ml, 1 h at 37° C., FIG. 19. The procedure:
Fluorescently labeled LDL (Alexa Fluor 568-NHS ester) at 50 μg/ml final protein concentration was preincubated with or without 10 μM MyrN-E141-150-amL peptide for 30 min at 37° C. (solutions made in DMEM (no phenol red, no serum) with 0.1% BSA). To some LDL and some LDL/peptide samples, heparin was added (10 USP/ml final conc.; heparin, sodium injection from porcine intestinal mucosa (Fresenius Kabi USA, Lake Zurich, IL)). Mixtures were preincubated for additional 5 min at 37° C. Next, WT HepG2 cells were incubated with the LDL/peptide/heparin mixtures for 1 h at 37° C. Lipoprotein uptake was assessed by flow cytometry. Heparin diminished the effect of MyrN-E141-150-amL peptide on LDL uptake in the wild type HepG2 cells (FIG. 19).

In assay [6] the test system is LDLR-KO mice. Put plainly: Single dose LDLR-KO mouse study, plasma total cholesterol. In kind it is in vivo. The following applies: 2.5 μmol/kg (4.6 mg/kg) i.v. single dose, after 3 h and 6 h of injection, FIG. 21A. The procedure: MyrN-E141-150-amL and OctaN-E141-150 were tested in a single dose LDLR-KO mouse study. LDLR-KO mice (n=9) were divided into 3 groups: control group (PBS), n=3; MyrN-E141-150-amL (2.5 μmol/kg; 4.6 mg/kg), n=3; and OctaN-E141-150 (2.5 μmol/kg; 4.4 mg/kg), n=3. Mice were fed normal chow diet for the whole study. Peptides were injected i.v. and blood samples were collected at pre-injection and 1 h, 3 h, 6 h and 24 h after the injection of the peptides. Measurement of plasma total cholesterol was as described in Example 2. MyrN-E141-150-amL lowered plasma total cholesterol around 15-30% after 3 h and 6 h of injection (FIG. 21A).

[7] abbreviates: low peptide dose, FIGS. 18A, 18C.

Numbered stars: 1 amine (or outer) side, 2 acyl side, 3 side chain; on linkers, the order of the positions; unused ones are H or OH. Bridge positions count the residues as written; N and C are the ends. Square brackets hold non-standard residues; d marks the D form. Primed or numbered codes have the meaning given here. * marks the point of attachment. B5 = bis-pentenylglycine, C=CCCCC(CCCC=C)(N[*:1])C(=O)[*:2]; R8 = C=CCCCCCC[C@@](C)(N)C(=O)O; S8 = C=CCCCCCC[C@](C)(N)C(=O)O; αMeL = CC(C)C[C@](C)(N)C(=O)O; Octanoyl′ = not defined here; S5 = C=CCCC[C@](C)(N)C(=O)O; Myristyl = CCCCCCCCCCCCCC*; Octanoyl = CCCCCCCC(=O)*

“Octanoyl-SH(R8)RKLRKR(S5)LR-NH2 (Octanoyl-SH[R8]RKLRKR[S5]LR-NH2; staple 3-10; SMILES CCCCCCCC(=O)N[C@@H](CO)C(=O)N[C@@H](Cc1c[nH]cn1)C(=O)N[C@]1(C)CCCCCCC=CCCC[C@@](C)(C(=O)N[C@@H](CC(C)C)C(=O)N[C@@H](CCCNC(=N)N)C(N)=O)NC(=O)[C@H](CCCNC(=N)N)NC(=O)[C@H](CCCCN)NC(=O)[C@H](CCCNC(=N)N)NC(=O)[C@H](CC(C)C)NC(=O)[C@H](CCCCN)NC(=O)[C@H](CCCNC(=N)N)NC1=O) [OctaN-E139-150]”: in assay [1] (at 3 h), the “lowering of plasma total cholesterol” value is listed as 37%. Moreover, the “lowering of plasma total cholesterol” value in assay [1] (at 6 h) was 29%. In assay [1], the plasma total cholesterol entry is “significantly decreased” and the plasma triglyceride levels result was “significantly decreased”.

With “Ac-SH(R8)RKLRKR(S5)LR-Octanoyl (Ac-SH[R8]RKLRKR[S5]LR-{Octanoyl′}; staple 3-10) [OctaC-E139-150]”, the “effect of heparinase treatment on peptide mediated LDL uptake” value is “heparinase treatment had a lower effect” in assay [2] (higher peptide concentrations, FIG. 18A); “diminished low dose peptide effect on LDL uptake” in assay [2] (setting [7]); “showed similar results” in assay [3]. In addition, the plasma total cholesterol entry in assay [1] is “significantly decreased”. Moreover, in assay [1], the plasma triglyceride levels result is “significantly decreased”. Also, the “MHV-GFP fluorescence (viral replication)” value in assay [4] is “dramatic reductions”.

With “Myristyl-(R8)RKLRKR(S5)L(alpha-methyl)R-NH2 (Myristyl-[R8]RKLRKR[S5][αMeL]R-NH2; staple 1-8; SMILES CCCCCCCCCCCCCCN[C@]1(C)CCCCCCC=CCCC[C@@](C)(C(=O)N[C@@](C)(CC(C)C)C(=O)N[C@@H](CCCNC(=N)N)C(N)=O)NC(=O)[C@H](CCCNC(=N)N)NC(=O)[C@H](CCCCN)NC(=O)[C@H](CCCNC(=N)N)NC(=O)[C@H](CC(C)C)NC(=O)[C@H](CCCCN)NC(=O)[C@H](CCCNC(=N)N)NC1=O) [MyrN-E141-150-amL]”, in assay [5], the “effect of heparin on peptide effect on LDL uptake” value is reported as “diminished”. In addition, the “effect of heparinase treatment on peptide mediated LDL uptake” value in assay [2] (setting [7]) is “attenuated”. For the same substance, the “lowering of plasma total cholesterol” value in assay [6] is recorded as 15-30%.

“Myristyl-SH(R8)RKLRKR(S5)LR-NH2 (Myristyl-SH[R8]RKLRKR[S5]LR-NH2; staple 3-10; SMILES CCCCCCCCCCCCCCN[C@@H](CO)C(=O)N[C@@H](Cc1c[nH]cn1)C(=O)N[C@]1(C)CCCCCCC=CCCC[C@@](C)(C(=O)N[C@@H](CC(C)C)C(=O)N[C@@H](CCCNC(=N)N)C(N)=O)NC(=O)[C@H](CCCNC(=N)N)NC(=O)[C@H](CCCCN)NC(=O)[C@H](CCCNC(=N)N)NC(=O)[C@H](CC(C)C)NC(=O)[C@H](CCCCN)NC(=O)[C@H](CCCNC(=N)N)NC1=O) [MyrN-E139-150]”: the “lowering of plasma total cholesterol” value in assay [1] (at 3 h) is 37%; in assay [1] (at 6 h), 29%.

Consider “Ac-RVR(S5)ASH(B5)RKLRKR(S8)LR-NH2 (Ac-RVR[S5]ASH[B5]RKLRKR[S8]LR-NH2; staple 8-15, 4-8) [E134-150-Stitch]”, for which the “MHV-GFP fluorescence (viral replication)” value in assay [4] is given as “dramatic reductions”.
